Measured values taken from US8901317B2, “Tryptamine derivatives, their preparation and their use in gastropathy” (Council of Scientific & Industrial Research, priority 2010, dated 2014).

Assays:
[1] = Ferric reducing antioxidant power (FRAP) assay; details: compound at 10 μM relative to ferrous sulfate; for FRAP Value6 min (μM) M ± SD: 6 min; for FRAP Value65 min (μM) M ± SD: 65 min
Description: The antioxidant property of different tryptamine derivatives were assessed and compared with the known antioxidants for potency. […] The FRAP assay is based on the measurement of the ability of the substance to reduce Fe^3+ to Fe^2+, greater the reducing ability greater the anti oxidant property. Antioxidants reduce Fe^3+-TPTZ in to blue colored Fe^2+-TPTZ complex, which results in an increase in the absorbance at 595 nm giving a FRAP value. […] Absorbance changes at different time intervals (FIG. 6) as well as at different concentrations (FIG. 7) at time 6 min in the presence of different compounds at 595 nm were measured. FRAP values at 6 min and 65 min were calculated from different tryptamine derivatives and some known antioxidant (Table 1). […] DPPH assay based on the DPPH free radicals scavenging power of the antioxidant molecules. Higher the scavenging power higher will be the antioxidant property.
The assay was performed in a 96-well microplate. FRAP reagent was prepared by mixing of 10 ml acetate buffer (200 mM, pH-3.6), 1 ml of 2,4,6-tris(2-pyridyl)-s-triazine (TPTZ) solution (10 mM in 40 mM HCl) and 1 ml of ferric chloride solution (20 mM) in distilled water. For 1 h the mixture was kept in a water bath at 37° C. In 96-well microplates, 25 μL of the compounds under investigation dissolved (in methanol, some compound dissolved in water) at different concentrations in the range 1-25 μM was placed in triplicate and freshly prepared FRAP solution (175 μL) was added to this sample. A micro plate reader monitored the absorbance at 595 nm at different time intervals for up to 150 min. The absorbance of a mixture 175 μL TRAP sol and 25 μL methanol or water was taken which was subtracted from the absorbance of the samples at each time interval to calculate the absorbance change (ΔA). The FRAP value at time interval t (FRAP valuet) was calculated according to the formula: FRAP valuet(M)=(ΔatFl/ΔatFe^2+)×10^−5 Where ΔatFl is the absorbance change after the time interval t (6 and 65 min) relative to the tested flavonoid at the concentration of 10 μM and ΔatFe^2+ is the absorbance change at the same time interval relative to ferrous sulfate at the same concentration (Pal, C; et al. Free Radic Biol Med, 49(2), 258-267, 2010, Firuzi, O; et al. Biochim. Biophys. Acta 1721:174-184; 2005).

[2] = DPPH free radical scavenging assay; details: compounds 100 μM; 517 nm (Table 2)
Description: The antioxidant property of different tryptamine derivatives were assessed and compared with the known antioxidants for potency. A range of different synthesized compounds and known anti oxidants, quercetin, ascorbic acid and gallic acid were analyzed by the FRAP assay. The FRAP assay is based on the measurement of the ability of the substance to reduce Fe^3+ to Fe^2+, greater the reducing ability greater the anti oxidant property. Antioxidants reduce Fe^3+-TPTZ in to blue colored Fe^2+-TPTZ complex, which results in an increase in the absorbance at 595 nm giving a FRAP value. […] Absorbance changes at different time intervals (FIG. 6) as well as at different concentrations (FIG. 7) at time 6 min in the presence of different compounds at 595 nm were measured. FRAP values at 6 min and 65 min were calculated from different tryptamine derivatives and some known antioxidant (Table 1). […] DPPH assay based on the DPPH free radicals scavenging power of the antioxidant molecules. Higher the scavenging power higher will be the antioxidant property. […] This assay was performed in presence of some known antioxidants such as ascorbic acid, quercetin and gallic acid.
2,2-Diphenyl-1-Picrylhydrazyl (DPPH) is a stable free radical that can accept hydrogen radical or an electron and become a stable diamagnetic molecule. The antioxidants can scavenge the DPPH by donating hydrogen as visualized by discoloration of the DPPH radical from purple to yellow (Pal, C; et al. Free Radic Biol Med, 49(2), 258-267; 2010, Ben Farhat, M.; et al. J. Agric. Food Chem. 57:10349-10356; 2009, Han, J; et al. Wei Sheng Yan Jiu 38:596-598; 2009). The assay system contained 1 mL of compounds under investigation dissolved (in methanol, some compound dissolved in water) at different concentrations in the range 10-100 μM solution and 4 ml of DPPH (0.15 mM) in methanol (80% in water v/v) and mixed well. It was allowed to stand for 30 min at 27° C. away from light. Ascorbic acid at the same concentration was taken as positive control. The absorbance of the solution was measured spectrophotometrically at 517 nm and from the decrease of absorption; the antioxidant activity of different tryptamine derivatives were determined.

[3] = system: CaCo2 colon cancer cells; details: literature (Shoeb et al. 2006); cited from earlier work
[4] = system: rats; test: Toxicity (death) after injection in rats; assay type: in vivo; details: injected; dose not given
[5] = literature (Shahrzad et al. 2001); cited from earlier work

Structure (SMILES) | FRAP Value6 min (μM) M ± SD [1] [µM] | FRAP Value65 min (μM) M ± SD [1] [µM] | Absorbance change (ΔA) at 30 min [2] | in vitro cytotoxic activity [3] | death of rats after injection [4] | bioavailability in plasma [5]
O=C(/C=C/c1ccc(O)cc1)NCCc1c[nH]c2ccc(O)cc12 [Compound 2b, (E)-N-(2-(5-hydroxy-1H-indol-3-yl)ethyl)-3-(4-hydroxyphenyl)acrylamide] | 3.09 ± 0.13 | 7.44 ± 1.47 | 0.12 ± 0.01 | shows in vitro cytotoxic activity | – | –
NCCc1c[nH]c2ccc(OC(=O)CCCC(=O)NCCc3c[nH]c4ccc(O)cc34)cc12 [Compound 6c, 3-(2-aminoethyl)-1H-indol-5-yl 5-(2-(5-hydroxy-1H-indol-3-yl)ethylamino)-5-oxopentanoate] | 17.51 ± 0.38 | 29.78 ± 3.87 | 0.19 ± 0.03 | – | all the rats were found dead within 20 mins | –
O=C(O)c1cc(O)c(O)c(O)c1 [Gallic acid, reference compound] | 33.90 ± 4.92 | 46.59 ± 8.41 | – | – | – | low
